The record followed here is publication PMC6274786 (International Journal of Molecular Sciences, 2018).

The Ki is a dissociation constant, usually derived from enzyme kinetics or from competition with a known ligand. Usually IC50 stands for the concentration that gives 50% inhibition. High values mean a need for much substance, low ones inhibition by little substance.

Read-outs that look alike come from different tables or passages of the source. A value given as a limit tells only on which side of the number the result lay.

One data set deals with STR-induced seizure. In words: Strychnine (STR)-induced seizure. In kind it is in vivo, Wistar rats. The settings on record: for protective effect in STR-induced seizure (in words): 30 min observation, vs saline-treated group; for STR-Induced Seizure (protection class): STR 3.5 mg/kg. How it is done:
(§1) In this study and according to previously used protocols, two chemical agents have been used to induce seizures, namely pentylenetetrazole (PTZ, 60 mg/kg, i.p.) and strychnine (STR, 3.5 mg/kg, i.p.). PTZ 60 mg/kg or STR 3.5 mg/kg were administered i.p. to all groups of seven rats (n = 7), that is, animals pretreated with vehicle or test compounds 1–16. Vehicle, VPA (300 mg/kg, i.p.), [26, 47, 48, 49] or test compounds 1–16 (10 mg/kg, i.p.) were systemically administered 30–45 min before PTZ (60 mg/kg, i.p.) or STR (3.5 mg/kg, i.p.) injection, and animals were directly observed for any signs of convulsion for a duration of 30 min. The observed scores as well as percent protection against generalized tonic-clonic seizure (GTCS) were graded and scaled according to the Racine scale (stage 0, no change in behavior; stage 1, stereotype mouthing, eye blinking, and/or mild facial clonus; stage 2, head nodding and/or severe facial clonus; stage 3, myoclonic jerk in forelimbs; stage 4, clonic convulsions in the forelimbs with rearing; stage 5, generalized colonic convulsions associated with loss of balance) to evaluate the protection provided by the respective test compound against seizures. The animals were divided into eighteen groups of seven rats (n = 7) and treated as follows.
(§2) (1) Control group injected with vehicle + PTZ (SAL group), (2) positive control group in which rats were injected with VPA (300 mg/kg) + PTZ (VPA group), and animals in the test groups (3)–(18) were systemically administered with test compounds 1–16 (10 mg/kg), respectively. An additional PTZ experiment was conducted using three different groups of seven rats (n = 7), the H3R ligand with the most promising protection in PTZ model was administered at doses of 2.5, 5, or 15 mg/kg, i.p. 30–45 min before the PTZ challenge. […] The same experimental procedure was followed in the STR-induced seizure model applying the reference drug VPA, which was used at a dose of 300 mg/kg, i.p. (Figure 3, Table 2).

The test system of a further data set is MES-induced seizure. Kind of data set: Maximal electroshock (MES)-induced seizure. The settings on record: 10 mg/kg i.p.; for MES-Induced Seizure (protection class): 50 Hz, 120 mA, 1 s. In kind it is in vivo, Wistar rats. An excerpt:
As previously described, the seizures were induced in rats with a 50 Hz alternating current of 120 mA intensity. The current was applied through ear electrodes for 1 s. Protection against the spread of MES-induced seizure was defined as the abolition of the tonic hind limb extension (THLE) component of the seizure. For the first screening of protective effects of test compounds 1–16 in the MES-induced seizure model, the animals were divided into eighteen groups of seven rats (n = 7) as follows; group (1) control group injected with vehicle (SAL), group (2) positive control group in which rats were injected with PHT at a dose of 10 mg/kg (this being the minimal dose of PHT that protected animals against the spread of MES-induced seizures without mortality), and groups (3)–(18) animals in the experimental groups were administered H3R antagonists 1–16 at a dose of 10 mg/kg. In another MES experiment in three separate groups of six rats (n = 6), H3R antagonist 4 with the most promising protection in MES model was administered at doses of 2.5, 5, or 15 mg/kg, i.p. 30–45 min before the MES challenge.
Background: Protection in the maximal electroshock model is a classic sign of anticonvulsant action.

A further data set deals with T1, hH4R (Homo sapiens, UniProt Q9H3N8).
T1 construct: expressed in transfected cells; host or cells: Sf9 insect cells (membrane preparations)
Kind of data set: H4R radioligand displacement assay, Sf9 cell membrane preparations. Type of data set: binding. How it is done: H4R radioligand displacement assays were performed with Sf9 cell membrane preparations, expressing the hH4R, as described previously. Assays ran in triplicates with four appropriate concentrations of the test compound. Data were analyzed by GraphPad Prism 7, using the “one-site competition” equation.

A further data set has as its target T2, human H1 receptor (Homo sapiens, UniProt P35367).
T2 construct: purchased PerkinElmer; host or cells: CHO-K1 cells, stably transfected (membranes)
Kind of data set: Radioligand binding, membranes from CHO-K1 cells. The conditions noted are these: for fold lower affinity at hH1- and H4Rs than at H3R: selectivity toward H3Rs. How it is done:
Radioligand binding was performed as previously described using membranes from CHO-K1 cells stably transfected with the human H1 receptor (PerkinElmer., Waltham, MA, USA). Data were fitted to a one-site curve-fitting equation with Prism 6 (GraphPad Software, city, state, country) and Ki values were estimated from the Cheng–Prusoff equation [44].

In a further data set the test system is PTZ-induced seizure. Kind of data set: Pentylenetetrazole (PTZ)-induced seizure. Type of data set: in vivo, Wistar rats. The settings on record: 10 mg/kg i.p.; for protective effect in PTZ-induced seizure (in words): observed over 30 min, vs saline-treated group; for PTZ-Induced Seizure (protection class): PTZ 60 mg/kg. How it is done: as §1, §2
The target of another data set is T3, human histamine H3R (Homo sapiens, UniProt Q9Y5N1).
T3 construct: expressed in transfected cells
Kind of data set: [3H]Nα-methylhistamine radioligand displacement assay, HEK-293 cell membranes. Type of data set: binding. How it is done:
As described previously, the affinity for the human histamine H3R was tested utilizing radioligand displacement assays with [^3H]N^α-methylhistamine at membrane preparations from human embryonic kidney (HEK)-293 cells, stably expressing the receptor. […] The analysis of data was conducted by the software GraphPad Prism 7 (San Diego, CA, USA), using the “one-site competition” equation. Ki values were calculated from the 50 percent of inhibitory concentration (IC50) values according to the Cheng-Prusoff equation [44]
Background: In a radioligand displacement assay an active substance lowers the binding of a labelled ligand.

The target in another data set is CYP2D6 (Homo sapiens, UniProt P10635). In words: Luminescent CYP2D6 P450-Glo assay. The conditions noted are these: human. How it is done:
The metabolic interactions of H3R antagonist 4 were determined by the luminescent P450-Glo™ 3A4 and 2D6 assays purchased from Promega®. All enzymatic reactions were performed according to the manufacturer protocols and as previously described. […] The luminescence was measured with a microplate reader EnSpire (PerkinElmer). The final concentration of H3R antagonist 4 was in the range of 0.1–25 µM, whereas reference inhibitory effects ranged from 0.01 µM to 10 µM. The IC50 values’ calculations were performed by GraphPad Prism™ software (version 5.01, San Diego, CA, USA).

Another data set deals with Hepatoma HepG2 cell line. In words: Antiproliferative assay (MTS), HepG2. Type of data set: cell-based. The settings on record: 72 h incubation. Here is the method:
Human embryonic kidney (HEK)-293 cell line (ATCC CRL-1573) was kindly donated by Prof. Dr. […] (Pharmaceutical Institute, Pharmaceutical Chemistry I, University of Bonn). Hepatoma HepG2 (ATCC HB-8065) cell line was kindly donated by the Department of Pharmacological Screening, Jagiellonian University Medical College. The cell cultures' growth conditions in presence of H3R antagonist 4 were applied as described before. The cells' viability was assessed after 72 h of incubation with H3R antagonist and the following references: doxorubicin (Sigma-Aldrich) and carbonyl cyanide 3-chlorophenylhydrazone (CCCP) (Sigma-Aldrich). CellTiter 96® AQueous non-radioactive cell proliferation assay (MTS) was purchased from Promega® and added to each well in the volume of 20 μL. The cells were then incubated for 2-5 h. The microplate reader EnSpire (PerkinElmer Ltd., Waltham, MA, USA) was used to measure the absorbance at 490 nm.

[1] abbreviates: 10 mg/kg i.p. co-administered with RAMH 10 mg/kg i.p.

T2 sequence (P35367 whole entry): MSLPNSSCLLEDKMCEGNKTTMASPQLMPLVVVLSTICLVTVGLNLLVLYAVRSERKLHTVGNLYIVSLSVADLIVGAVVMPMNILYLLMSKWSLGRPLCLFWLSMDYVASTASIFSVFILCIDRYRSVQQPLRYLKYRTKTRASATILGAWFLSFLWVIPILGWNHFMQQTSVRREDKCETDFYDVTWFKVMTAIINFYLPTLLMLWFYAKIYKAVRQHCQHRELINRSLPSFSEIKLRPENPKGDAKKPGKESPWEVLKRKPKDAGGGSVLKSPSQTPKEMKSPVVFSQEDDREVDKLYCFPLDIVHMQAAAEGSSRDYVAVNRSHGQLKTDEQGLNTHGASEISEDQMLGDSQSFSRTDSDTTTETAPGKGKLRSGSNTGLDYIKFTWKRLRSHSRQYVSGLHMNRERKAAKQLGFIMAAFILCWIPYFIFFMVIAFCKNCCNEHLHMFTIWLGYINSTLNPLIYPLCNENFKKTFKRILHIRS
T3 sequence (Q9Y5N1 whole entry): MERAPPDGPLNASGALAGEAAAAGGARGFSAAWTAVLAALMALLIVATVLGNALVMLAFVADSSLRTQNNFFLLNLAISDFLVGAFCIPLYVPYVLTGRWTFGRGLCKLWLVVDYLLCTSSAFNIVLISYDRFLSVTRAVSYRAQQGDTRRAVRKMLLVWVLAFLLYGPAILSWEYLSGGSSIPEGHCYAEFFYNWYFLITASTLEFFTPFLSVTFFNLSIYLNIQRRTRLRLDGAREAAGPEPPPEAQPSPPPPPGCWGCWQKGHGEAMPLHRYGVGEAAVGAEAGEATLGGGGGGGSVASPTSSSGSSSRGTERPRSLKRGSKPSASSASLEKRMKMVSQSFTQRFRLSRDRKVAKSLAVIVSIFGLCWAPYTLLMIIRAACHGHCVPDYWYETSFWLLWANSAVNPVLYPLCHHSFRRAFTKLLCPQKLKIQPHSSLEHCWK
T1 sequence (Q9H3N8 whole entry): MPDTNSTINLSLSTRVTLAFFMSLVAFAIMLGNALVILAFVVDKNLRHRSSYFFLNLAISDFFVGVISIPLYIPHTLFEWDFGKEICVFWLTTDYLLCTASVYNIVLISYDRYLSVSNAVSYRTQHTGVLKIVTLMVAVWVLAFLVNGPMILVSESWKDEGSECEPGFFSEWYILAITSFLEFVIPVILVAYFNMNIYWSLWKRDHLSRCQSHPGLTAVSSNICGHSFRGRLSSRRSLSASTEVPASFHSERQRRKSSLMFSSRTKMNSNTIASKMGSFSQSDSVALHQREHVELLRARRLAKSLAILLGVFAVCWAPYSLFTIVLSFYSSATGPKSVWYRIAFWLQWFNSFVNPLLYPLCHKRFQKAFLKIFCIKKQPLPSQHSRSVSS
Sequence of CYP2D6 (P10635 whole entry): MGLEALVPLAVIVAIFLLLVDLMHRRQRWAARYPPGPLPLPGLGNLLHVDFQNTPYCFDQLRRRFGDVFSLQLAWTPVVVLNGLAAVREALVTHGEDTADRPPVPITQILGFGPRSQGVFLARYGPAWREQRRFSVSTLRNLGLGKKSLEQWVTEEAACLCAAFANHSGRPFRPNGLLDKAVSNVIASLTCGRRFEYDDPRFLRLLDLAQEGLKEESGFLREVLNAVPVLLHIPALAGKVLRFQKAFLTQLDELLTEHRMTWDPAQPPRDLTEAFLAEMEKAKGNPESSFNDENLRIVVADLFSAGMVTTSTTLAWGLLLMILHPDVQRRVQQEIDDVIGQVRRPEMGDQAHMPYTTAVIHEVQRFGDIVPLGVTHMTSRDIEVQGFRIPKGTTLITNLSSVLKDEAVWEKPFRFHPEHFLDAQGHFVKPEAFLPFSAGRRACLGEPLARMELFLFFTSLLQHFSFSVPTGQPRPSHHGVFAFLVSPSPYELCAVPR

Take `Fc1ccc(OCCCCCCN2CCCCCC2)cc1.O=C(O)C(=O)O` [Ligand 13, 1-(6-(4-fluorophenoxy)hexyl)azepane hydrogen oxalate]: in the data set on STR-induced seizure (2.5 mg/kg i.p.), the “STR-Induced Seizure % Protection against GTCS” value is recorded as 14.29% and the “STR-Induced Seizure Average Seizure Score” value came out at 4.86 ± 0.13. In addition, in the data set with STR-induced seizure (5 mg/kg i.p.), the “STR-Induced Seizure % Protection against GTCS” value worked out at 85.71% and the “STR-Induced Seizure Average Seizure Score” value is 3.00 ± 0.31. Further, in the data set with STR-induced seizure (10 mg/kg i.p.), the “STR-Induced Seizure % Protection against GTCS” value was found to be 100%; the “STR-Induced Seizure Average Seizure Score” value is given as 2.00 ± 0.35; the “protective effect in STR-induced seizure (in words)” value is “moderate protective effect”; the “STR-Induced Seizure (protection class)” value is reported as “+ (moderate protective effect (tonic hind limb extension (THLE) duration in the range of 2–5 s, seizure score in the range of 2–4))”. For the same molecule, in the data set with STR-induced seizure (setting [1]), the “STR-Induced Seizure % Protection against GTCS” value is 100% and the “STR-Induced Seizure Average Seizure Score” value worked out at 2.14 ± 0.35. For the same molecule, in the data set with STR-induced seizure (15 mg/kg i.p.), the “STR-Induced Seizure % Protection against GTCS” value was 100% and the “STR-Induced Seizure Average Seizure Score” value came to 2.17 ± 0.31. In addition, in the data set on MES-induced seizure, the “MES-Induced Seizure Average THLE” value was 6.43 ± 1.14 s and the “MES-Induced Seizure (protection class)” value was “−”. Besides, the “protective effect in MES-induced seizure (in words)” value in the data set with MES-induced seizure (vs saline-treated group) is listed as “without protection”. This molecule yielded a Ki on hH4R of more than 10000 nM. Moreover, at human H1 receptor, the inhibition constant Ki amounted to 1340 nM; the “fold lower affinity at hH1- and H4Rs than at H3R” value is listed as “at least 10 fold”. Further, in the data set on PTZ-induced seizure, the “PTZ-Induced Seizure % Protection against GTCS” value is 85.71%; the “PTZ-Induced Seizure Average Seizure Score” value was 2.14 ± 0.47; the “protective effect in PTZ-induced seizure (in words)” value is listed as “weak protection”; the “PTZ-Induced Seizure (protection class)” value was “+ (moderate protective effect (tonic hind limb extension (THLE) duration in the range of 2–5 s, seizure score in the range of 2–4))”. Moreover, the Ki at human histamine H3R (mean with 95% confidence interval, read-out: In Vitro Affinity Ki (hH3R) in nM [CI]) is 137 nM.

For the molecule `O=C(O)C(=O)O.O=C(c1ccccc1)c1ccc(OCCCCCCN2CCCCCC2)cc1` [Ligand 7, (4-(6-(azepan-1-yl)hexyloxy)phenyl)(phenyl)methanone hydrogen oxalate], in the data set on STR-induced seizure (10 mg/kg i.p.), the “protective effect in STR-induced seizure (in words)” value is on record as “failed to exhibit appreciable protection” and the “STR-Induced Seizure (protection class)” value is reported as “−”. Also, the “MES-Induced Seizure (protection class)” value with MES-induced seizure is given as “+ (moderate protective effect (tonic hind limb extension (THLE) duration in the range of 2–5 s, seizure score in the range of 2–4))”. For the same molecule, the inhibition constant (Ki) at hH4R is more than 10000 nM. In addition, at human H1 receptor, the inhibitory constant (Ki) was 915 nM; the “fold lower affinity at hH1- and H4Rs than at H3R” value is “at least 10 fold”. Moreover, in the data set on PTZ-induced seizure, the “protective effect in PTZ-induced seizure (in words)” value was “full protective activities” and the “PTZ-Induced Seizure (protection class)” value is listed as “++ (high protective effect (THLE duration <1, seizure score 0))”. In addition, the inhibition constant (Ki) on human histamine H3R was determined as 40.5 nM.

At CYP2D6, `CC1CCCN(CCCCCCOc2ccc(C(=O)c3ccccc3)cc2)C1.O=C(O)C(=O)O` (stereo not drawn) [Ligand 6, (4-(6-(3-methylpiperidin-1-yl)hexyloxy)phenyl)(phenyl)methanone hydrogen oxalate] showed an IC50 of 670 nM. In addition, the “STR-Induced Seizure (protection class)” value in the data set with STR-induced seizure (10 mg/kg i.p.) was “−”. The “MES-Induced Seizure (protection class)” value in the data set with MES-induced seizure was “+ (moderate protective effect (tonic hind limb extension (THLE) duration in the range of 2–5 s, seizure score in the range of 2–4))”. The results for the Ki on human H1 receptor and on human histamine H3R were 915 to 1340 nM and 52.8 nM, respectively. Further, the “PTZ-Induced Seizure (protection class)” value in the data set on PTZ-induced seizure is listed as “−”.

Regarding `N#CC(C#N)=NNc1cccc(Cl)c1` [CCCP, carbonyl cyanide 3-chlorophenylhydrazone, reference compound], in the data set with Hepatoma HepG2 cell line, the “concentration with significant decrease of HepG2 proliferation/viability” value was 10 µM.
